Experimental findings from patent US20230135729A1, “COMPOUND WITH ANTI-SPORE ACTIVITY AND PHARMACEUTICAL COMPOSITION THEREOF” (priority 2020, published 2023) are described below.

In brackets after ≈: the same amount, converted by molar mass.

Type in all cases: cell-based
The subject of assay [1] is spores of ATCC 43255 strain. Description: Inhibition of germination of C. difficile spores (MIC), strain ATCC 43255. The settings on record: Clostridioides difficile, ATCC43255, 1 h; strain 43255; sodium taurocholate as germinant, BHIS medium, 37° C., OD580 for 60 min; read-out: MIC (minimum concentration that completely inhibits spore germination). The procedure, abridged:
(§1)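 Spores heat-activated for 30 min at 65° C and washed, then preincubated with compound (10 mM DMSO stock) in BHIS at 37° C. Germination was triggered with sodium taurocholate, and OD580 was read each minute for 60 min. Inhibition = 100% − germination rate, from final vs initial OD relative to germinant-only controls.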

Assay [2] has as its system spores of ATCC BBA1870 strain. As to the kind of experiment: Inhibition of germination of C. difficile spores (MIC), strain ATCC BBA1870. The following applies: Clostridioides difficile, ATCCBBA1870STRAIN, 1 h; strain 1870; sodium taurocholate as germinant, BHIS medium, 37° C., OD580 for 60 min; read-out: MIC (minimum concentration that completely inhibits spore germination). In outline:
as §1

Assay [3] has as its system spores of ATCC 630 strain. Description: Inhibition of germination of C. difficile spores (MIC), strain ATCC 630. The following applies: Clostridioides difficile, ATCC630, 1 h; strain 630; sodium taurocholate as germinant, BHIS medium, 37° C., OD580 for 60 min; read-out: MIC (minimum concentration that completely inhibits spore germination). The procedure, abridged:
as §1

With `CC[C@@H](NC(=O)C[C@@H](C)[C@H]1CC[C@H]2[C@@H]3[C@H](O)[C@H](O)[C@@H]4CC(=O)CC[C@]4(C)[C@H]3CC[C@]12C)c1ccc(Cl)s1` [Compound I-123], the MIC in assay [1], in assay [2] and in assay [3] was 64 µM (≈ 35.2 µg/mL) in each case.

As for `CC[C@@H](NC(=O)C[C@@H](C)[C@H]1CC[C@H]2[C@@H]3[C@H](O)[C@H](O)[C@@H]4CC(=O)CC[C@]4(C)[C@H]3CC[C@]12C)c1ccc(Br)s1` [Compound I-124], the MIC in assay [1], in assay [2] and in assay [3] was 64 µM (≈ 38.1 µg/mL) in each case.

Consider `CCC(NC(=O)C[C@@H](C)[C@H]1CC[C@H]2[C@@H]3C[C@H](O)[C@@H]4C[C@H](O)CC[C@]4(C)[C@H]3CC[C@]12C)c1cccs1` (stereo partly drawn) [Compound I-125], for which the MIC in assay [1], in assay [2] and in assay [3] was 2 µM (≈ 1 µg/mL) each time.

As for `CCC(NC(=O)C[C@@H](C)[C@H]1CC[C@H]2[C@@H]3C[C@H](O)[C@@H]4C[C@H](O)CC[C@]4(C)[C@H]3CC[C@]12C)c1ccc(Cl)s1` (stereo partly drawn) [Compound I-126], the MIC in assay [1] worked out at 2 µM (≈ 1.07 µg/mL); in assay [2], 2 µM (≈ 1.07 µg/mL); in assay [3], 1 µM (≈ 0.536 µg/mL).

In the case of `CC(C)C(NC(=O)C[C@@H](C)[C@H]1CC[C@H]2[C@@H]3C[C@H](O)[C@@H]4C[C@H](O)CC[C@]4(C)[C@H]3CC[C@]12C)c1cccs1` (stereo partly drawn) [Compound I-127], the results for the MIC in assay [1], in assay [2] and in assay [3] were 8 µM (≈ 4.13 µg/mL), 8 µM (≈ 4.13 µg/mL) and 4 µM (≈ 2.06 µg/mL), respectively.

Consider `CC(C)[C@@H](NC(=O)C[C@@H](C)[C@H]1CC[C@H]2[C@@H]3C[C@H](O)[C@@H]4C[C@H](O)CC[C@]4(C)[C@H]3CC[C@]12C)c1ccc(Br)s1` [Compound I-128], for which the MIC was determined as 2 µM (≈ 1.19 µg/mL) in assay [1], 2 µM (≈ 1.19 µg/mL) in assay [2] and 1 µM (≈ 0.595 µg/mL) in assay [3].

On to `CC[C@H](NC(=O)C[C@@H](C)[C@H]1CC[C@H]2[C@@H]3C[C@H](O)[C@@H]4CC(=O)CC[C@]4(C)[C@H]3CC[C@]12C)c1ccc(Cl)s1` [Compound I-129], for which the values for the MIC in assay [1], in assay [2] and in assay [3] were 2 µM (≈ 1.07 µg/mL), 4 µM (≈ 2.14 µg/mL) and 2 µM (≈ 1.07 µg/mL), respectively.

`CC(C)C(NC(=O)C[C@@H](C)[C@H]1CC[C@H]2[C@@H]3C[C@H](O)[C@@H]4CC(=O)CC[C@]4(C)[C@H]3CC[C@]12C)c1ccc(Br)s1` (stereo partly drawn) [Compound I-130]: the MIC in assay [1], in assay [2] and in assay [3] was 4 µM (≈ 2.37 µg/mL) throughout.

On to `CC(C)[C@@H](NC(=O)C[C@@H](C)[C@H]1CC[C@H]2[C@@H]3CC(=O)[C@@H]4CC(=O)CC[C@]4(C)[C@H]3CC[C@]12C)c1ccc(Cl)s1` [Compound I-131], for which the MIC in assay [1], in assay [2] and in assay [3] was 2 µM (≈ 1.09 µg/mL) throughout.

For the molecule `CC[C@H](NC(=O)C[C@@H](C)[C@H]1CC[C@H]2[C@@H]3[C@H](O)C[C@@H]4CC(=O)CC[C@]4(C)[C@H]3CC[C@]12C)c1cccs1` [Compound I-132], the MIC is 128 µM (≈ 64 µg/mL) in assay [1], above 256 µM in assay [2] and 256 µM (≈ 128 µg/mL) in assay [3].

Consider `CC[C@@H](NC(=O)C[C@@H](C)[C@H]1CC[C@H]2[C@@H]3[C@H](O)C[C@@H]4CC(=O)CC[C@]4(C)[C@H]3CC[C@]12C)c1cccs1` [Compound I-133], for which the MIC in assay [1], in assay [2] and in assay [3] was 2 µM (≈ 1 µg/mL) in each case.

For `CC(C)C(NC(=O)C[C@@H](C)[C@H]1CC[C@H]2[C@@H]3[C@H](O)C[C@@H]4CC(=O)CC[C@]4(C)[C@H]3CC[C@]12C)c1cccs1` (stereo partly drawn) [Compound I-134], the MIC in assay [1], in assay [2] and in assay [3] was 2 µM (≈ 1.03 µg/mL) each time.

`CC(C)[C@H](NC(=O)C[C@@H](C)[C@H]1CC[C@H]2[C@@H]3[C@H](O)C[C@@H]4CC(=O)CC[C@]4(C)[C@H]3CC[C@]12C)c1cccs1` [Compound I-135]: the MIC in assay [1], in assay [2] and in assay [3] was above 256 µM in each case.

With `CC(C)[C@@H](NC(=O)C[C@@H](C)[C@H]1CC[C@H]2[C@@H]3[C@H](O)C[C@@H]4CC(=O)CC[C@]4(C)[C@H]3CC[C@]12C)c1cccs1` [Compound I-136], the MIC in assay [1], in assay [2] and in assay [3] was 1 µM (≈ 0.514 µg/mL) in each case.

For the molecule `CC[C@@H](NC(=O)C[C@@H](C)[C@H]1CC[C@H]2[C@@H]3[C@H](O)C[C@@H]4C[C@H](O)CC[C@]4(C)[C@H]3CC[C@]12C)c1ccc(Cl)s1` [Compound I-137], the MIC in assay [1], in assay [2] and in assay [3] was 1 µM (≈ 0.536 µg/mL) in each case.

As to `CC[C@@H](NC(=O)C[C@@H](C)[C@H]1CC[C@H]2[C@@H]3[C@H](O)C[C@@H]4C[C@H](O)CC[C@]4(C)[C@H]3CC[C@]12C)c1ccc(Br)s1` [Compound I-138], the MIC in assay [1], in assay [2] and in assay [3] was 1 µM (≈ 0.581 µg/mL) in each case.

`CC(C)[C@@H](NC(=O)C[C@@H](C)[C@H]1CC[C@H]2[C@@H]3[C@H](O)C[C@@H]4C[C@H](O)CC[C@]4(C)[C@H]3CC[C@]12C)c1ccc(Cl)s1` [Compound I-139]: the MIC in assay [1] was 1 µM (≈ 0.55 µg/mL); in assay [2], 2 µM (≈ 1.1 µg/mL); in assay [3], 1 µM (≈ 0.55 µg/mL).

As to `CC(C)[C@@H](NC(=O)C[C@@H](C)[C@H]1CC[C@H]2[C@@H]3[C@H](O)C[C@@H]4C[C@H](O)CC[C@]4(C)[C@H]3CC[C@]12C)c1ccc(Br)s1` [Compound I-140], the MIC in assay [1], in assay [2] and in assay [3] was 1 µM (≈ 0.595 µg/mL) in each case.

For the molecule `CC[C@@H](NC(=O)C[C@@H](C)[C@H]1CC[C@H]2[C@@H]3[C@@H](O)C[C@@H]4C[C@H](O)CC[C@]4(C)[C@H]3CC[C@]12C)c1ccc(Cl)s1` [Compound I-141], the MIC in assay [1], in assay [2] and in assay [3] was 32 µM (≈ 17.2 µg/mL) throughout.

With `CC(C)[C@@H](NC(=O)C[C@@H](C)[C@H]1CC[C@H]2[C@@H]3[C@@H](O)C[C@@H]4C[C@H](O)CC[C@]4(C)[C@H]3CC[C@]12C)c1ccc(Br)s1` [Compound I-142], the MIC in assay [1], in assay [2] and in assay [3] was 32 µM (≈ 19 µg/mL) each time.

Turning to `CC[C@@H](NC(=O)C[C@@H](C)[C@H]1CC[C@H]2[C@@H]3[C@H](O)C[C@@H]4C[C@@H](O)CC[C@]4(C)[C@H]3CC[C@]12C)c1ccc(Br)s1` [Compound I-143], the values for the MIC in assay [1], in assay [2] and in assay [3] were 4 µM (≈ 2.32 µg/mL), 8 µM (≈ 4.65 µg/mL) and 4 µM (≈ 2.32 µg/mL), respectively.

Regarding `CC(C)[C@@H](NC(=O)C[C@@H](C)[C@H]1CC[C@H]2[C@@H]3[C@H](O)C[C@@H]4C[C@@H](O)CC[C@]4(C)[C@H]3CC[C@]12C)c1ccc(Cl)s1` [Compound I-144], the results for the MIC in assay [1], in assay [2] and in assay [3] were 2 µM (≈ 1.1 µg/mL), 4 µM (≈ 2.2 µg/mL) and 2 µM (≈ 1.1 µg/mL), respectively.
